Assays:
[1] = test system: noradrenaline tissue levels; assay: Noradrenaline tissue levels in heart and brain of rats after oral administration; type: in vivo; conditions: rat; for noradrenaline tissue levels in brain parietal cortex and brain frontal cortex: 9 h after oral administration; for dose dependence of effects upon noradrenaline / time of maximum effect upon noradrenaline: oral
Method: (§1) Male NMRI mice or Wistar rats were obtained from Harlan-lnterfauna (Spain) and were kept 10 and 5 per cage respectively, under controlled environmental conditions (12 h light/dark cycle and room temperature 22±1° C.). Food and tap water were allowed ad libitum and experimentation was performed during daylight hours.
(§2) At time =0 h, animals were administered with either test compounds at a given dose or vehicle (water) delivered orally via gavage. At 2, 6, 9, 12, 18 and 24 h post dose, the animals were sacrificed by decapitation and heart (left atrium and left ventricle) and brain (frontal and parietal cortex) were isolated, weighed and stored in a volume of 0.2 M perchloric acid for 12 h at 4° C. in the dark. Post incubation, the resulting supernatants were collected by centrifuge filtration of incubates ([…]/10 min/˜5000 rpm, 4° C.). Supernatants were stored frozen at −80° C. until analysis. Quantification of dopamine and noradrenaline in supernatants was performed by high pressure liquid chromatography with electrochemical detection.

[2] = prior art finding; cited from earlier work
[3] = test system: noradrenaline tissue levels; assay: Noradrenaline tissue levels in heart and brain of mice after oral administration; type: in vivo, mouse; conditions: for recovery of initial noradrenaline tissue levels: mouse heart, at 24 h; for recovery of initial noradrenaline tissue levels / Time of maximum effect (Tmax) for noradrenaline tissue reduction / duration of action in the heart: 100 mg/kg oral; for Time of maximum effect (Tmax) for noradrenaline tissue reduction / dose at which the maximal inhibitory effect was attained: mouse left ventricle; for dose at which the maximal inhibitory effect was attained / noradrenaline levels in left ventricle / noradrenaline tissue levels in the brain parietal cortex: 9 h after oral administration; for duration of action in the heart / noradrenaline levels in left ventricle / noradrenaline tissue levels in the brain parietal cortex: mouse; for duration of action in the heart: time course
Method: as §1, §2

[4] = target: T1, human DβH (Homo sapiens, UniProt P09172); assay: DβH activity (β-hydroxylation of dopamine to noradrenaline) in SK-N-SH cells; type: cell-based; conditions: for remaining activity at 5 µM: SK-N-SH, 0.75 h, read-out: DβH activity in SK-N-SH cells, Mean ± SEM; for IC50 values against human DβH activity (in words): concentration-dependent decrease in β-hydroxylation of dopamine; for IC50: read-out: IC50 for inhibition of DβH in SK-N-SH cells
T1 construct: SK-N-SH cells (ATCC HTB-11), a human neuroblastoma derived cell line, were used as a source of human DβH; host or cells: SK-N-SH cells
T1 sequence (P09172 1-617): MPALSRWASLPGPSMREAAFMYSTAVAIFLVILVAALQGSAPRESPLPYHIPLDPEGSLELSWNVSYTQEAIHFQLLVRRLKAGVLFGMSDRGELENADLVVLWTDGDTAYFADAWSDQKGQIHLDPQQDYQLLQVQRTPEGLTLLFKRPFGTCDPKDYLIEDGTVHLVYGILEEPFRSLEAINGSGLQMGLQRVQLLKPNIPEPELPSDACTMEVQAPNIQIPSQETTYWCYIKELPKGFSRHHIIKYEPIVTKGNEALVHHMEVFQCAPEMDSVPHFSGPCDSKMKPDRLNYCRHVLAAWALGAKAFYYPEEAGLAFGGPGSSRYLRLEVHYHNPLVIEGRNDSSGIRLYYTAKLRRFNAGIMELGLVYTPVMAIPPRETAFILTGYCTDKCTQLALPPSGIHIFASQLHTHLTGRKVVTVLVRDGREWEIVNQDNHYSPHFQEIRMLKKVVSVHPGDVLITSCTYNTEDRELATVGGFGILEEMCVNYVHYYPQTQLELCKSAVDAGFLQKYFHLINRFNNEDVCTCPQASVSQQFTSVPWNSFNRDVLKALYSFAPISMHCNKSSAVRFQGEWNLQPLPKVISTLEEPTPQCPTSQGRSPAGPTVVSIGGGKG
Method: SK-N-SH cells (ATCC HTB-11), a human neuroblastoma derived cell line, were used as a source of human DβH. SK-N-SH cells cultured in 24 well plates were preincubated for 20 min in a reaction medium containing 200 mM sodium acetate, 30 mM N-ethylmaleimide, 5 μM copper sulphate, 0.5 mg/ml catalase aqueous solution, 1 mM pargyline, 10 mM sodium fumarate and 20 mM ascorbic acid. […] During preincubation and incubation, the cells were continuously shaken and maintained at 37° C. The reaction was terminated by the addition of 0.2 M perchloric acid. The acidified samples were stored at 4° C. before injection into the high pressure liquid chromatograph for the assay of noradrenaline.

remaining activity at 5 µM [4] [%] | IC50 values against human DβH activity (in words) [4] | IC50 [4] [nM] | inhibition of DβH activity (in words) ([4]; 5 μM, as listed in Table 1) | Structure (SMILES) | noradrenaline tissue levels in brain parietal cortex and brain frontal cortex [1] | dose dependence of effects upon noradrenaline [1] | time of maximum effect upon noradrenaline [1] [h] | crossing of the blood brain barrier (BBB) [2] | recovery of initial noradrenaline tissue levels [3] [%] | Time of maximum effect (Tmax) for noradrenaline tissue reduction [3] [h] | dose at which the maximal inhibitory effect was attained [3] [mg/kg] | duration of action in the heart [3] | noradrenaline levels in left ventricle [3] | noradrenaline tissue levels in the brain parietal cortex [3] | inhibitory effects upon noradrenaline levels in left atrium and left ventricle ([1]; 100 mg/kg oral, 9 h)
0 | low nM range | 36 |  | NCc1c[nH]c(=S)n1[C@H]1CCc2c(F)cc(F)cc2C1 [Compound 1, nepicastat, reference compound] | marked decrease | dependent on the dose administered | 9 | cross the blood brain barrier | 50 | 9 | 100 | long acting | dose-dependent manner | dose-dependent decrease | 
3.3 ± 0.3 | low nM range | 105 | markedly inhibit | Cl.NCCc1c[nH]c(=S)n1[C@H]1COc2c(F)cc(F)cc2C1 [Compound 4, (R)-5-(2-aminoethyl)-1-(6,8-difluorochroman-3-yl)-1,3-dihydroimidazole-2-thione hydrochloride] | failed to affect | dependent on the dose administered | 9 |  | 50 | 9 | 100 | long acting | dose-dependent manner | failed to affect | more pronounced than those elicited by 1
